Test results published in ChEMBL document CHEMBL5653631, “A Potent and Selective ULK1 Inhibitor Suppresses Autophagy and Sensitizes Cancer Cells to Nutrient Stress” (iScience, 2018).

Assays:
[1] = molecular target: T1, Testis-specific serine/threonine-protein kinase 4 (Homo sapiens) (UniProt Q6SA08); experiment: Inhibition of human recombinant TSSK4 at 500 nM in presence of ATP by radiometric assay relative to control
T1 sequence (whole entry): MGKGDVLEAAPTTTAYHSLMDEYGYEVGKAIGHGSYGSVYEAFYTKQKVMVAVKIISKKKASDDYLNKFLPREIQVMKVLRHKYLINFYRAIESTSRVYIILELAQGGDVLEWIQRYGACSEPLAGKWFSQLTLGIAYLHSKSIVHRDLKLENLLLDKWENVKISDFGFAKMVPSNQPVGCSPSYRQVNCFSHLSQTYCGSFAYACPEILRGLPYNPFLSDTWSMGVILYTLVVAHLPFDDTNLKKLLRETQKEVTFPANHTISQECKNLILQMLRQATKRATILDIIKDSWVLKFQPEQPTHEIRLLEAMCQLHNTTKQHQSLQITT

[2] = molecular target: SRSF protein kinase 3 (Homo sapiens) (UniProt Q9UPE1); experiment: Inhibition of human recombinant MSSK1 at 500 nM related to control ULK1
SRSF protein kinase 3 (Homo sapiens), sequence (Q9UPE1 whole entry): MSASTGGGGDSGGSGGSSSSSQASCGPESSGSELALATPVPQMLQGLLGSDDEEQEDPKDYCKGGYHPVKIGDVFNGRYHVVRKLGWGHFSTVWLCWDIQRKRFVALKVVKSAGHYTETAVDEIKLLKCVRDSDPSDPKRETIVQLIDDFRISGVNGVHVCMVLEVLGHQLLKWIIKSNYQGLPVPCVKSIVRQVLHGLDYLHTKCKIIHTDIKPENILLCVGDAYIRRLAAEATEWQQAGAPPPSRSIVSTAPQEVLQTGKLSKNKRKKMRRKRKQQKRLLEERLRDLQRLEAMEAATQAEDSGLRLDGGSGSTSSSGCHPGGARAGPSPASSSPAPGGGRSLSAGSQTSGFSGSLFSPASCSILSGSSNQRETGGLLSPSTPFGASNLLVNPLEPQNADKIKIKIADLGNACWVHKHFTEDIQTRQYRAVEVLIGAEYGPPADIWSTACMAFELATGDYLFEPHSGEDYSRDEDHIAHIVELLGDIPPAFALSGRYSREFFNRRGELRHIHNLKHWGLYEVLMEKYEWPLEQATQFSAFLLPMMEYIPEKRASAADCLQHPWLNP

[3] = molecular target: Cyclin-dependent kinase 1 (Homo sapiens) (UniProt P06493); experiment: Inhibition of human recombinant CDC2 at 15 nM related to control ULK1
Cyclin-dependent kinase 1 (Homo sapiens), sequence (P06493 whole entry, looked up): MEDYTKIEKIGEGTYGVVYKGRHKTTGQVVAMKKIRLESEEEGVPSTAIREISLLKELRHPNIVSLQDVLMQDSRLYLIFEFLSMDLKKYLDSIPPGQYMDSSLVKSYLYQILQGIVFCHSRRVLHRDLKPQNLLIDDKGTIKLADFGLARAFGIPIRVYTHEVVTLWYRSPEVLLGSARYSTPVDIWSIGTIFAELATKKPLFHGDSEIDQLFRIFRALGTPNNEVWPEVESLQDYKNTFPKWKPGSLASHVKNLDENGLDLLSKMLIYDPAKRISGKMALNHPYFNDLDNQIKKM

[4] = molecular target: T2, Ephrin type-B receptor 3 (Homo sapiens) (UniProt P54753); experiment: Inhibition of human recombinant EphB3 at 40 nM related to control ULK1
T2 sequence (whole entry): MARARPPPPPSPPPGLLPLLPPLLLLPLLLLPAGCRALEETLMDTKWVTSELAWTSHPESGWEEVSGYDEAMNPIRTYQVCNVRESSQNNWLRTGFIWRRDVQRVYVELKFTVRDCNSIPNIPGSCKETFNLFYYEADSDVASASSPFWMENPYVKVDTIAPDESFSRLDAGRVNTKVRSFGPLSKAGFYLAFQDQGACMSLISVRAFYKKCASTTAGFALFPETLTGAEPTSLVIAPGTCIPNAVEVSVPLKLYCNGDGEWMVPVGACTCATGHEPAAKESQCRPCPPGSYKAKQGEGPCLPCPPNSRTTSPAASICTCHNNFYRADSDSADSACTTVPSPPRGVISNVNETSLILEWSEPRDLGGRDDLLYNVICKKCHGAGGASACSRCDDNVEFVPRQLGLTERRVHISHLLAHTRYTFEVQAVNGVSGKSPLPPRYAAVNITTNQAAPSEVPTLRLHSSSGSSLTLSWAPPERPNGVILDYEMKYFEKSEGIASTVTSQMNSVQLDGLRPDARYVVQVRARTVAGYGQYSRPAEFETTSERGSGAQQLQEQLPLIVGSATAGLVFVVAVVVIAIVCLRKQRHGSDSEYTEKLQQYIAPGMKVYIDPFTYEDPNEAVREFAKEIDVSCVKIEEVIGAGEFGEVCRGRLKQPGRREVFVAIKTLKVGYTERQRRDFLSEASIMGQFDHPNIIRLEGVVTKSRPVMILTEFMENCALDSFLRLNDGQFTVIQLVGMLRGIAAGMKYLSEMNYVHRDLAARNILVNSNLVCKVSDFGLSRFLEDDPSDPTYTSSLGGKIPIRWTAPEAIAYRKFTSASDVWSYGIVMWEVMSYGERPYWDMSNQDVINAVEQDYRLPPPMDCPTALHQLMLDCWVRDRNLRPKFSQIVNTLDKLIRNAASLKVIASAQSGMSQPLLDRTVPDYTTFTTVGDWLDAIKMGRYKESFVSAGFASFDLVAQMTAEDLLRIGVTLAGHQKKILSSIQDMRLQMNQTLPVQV

[5] = molecular target: Macrophage-stimulating protein receptor (Homo sapiens) (UniProt Q04912); experiment: Inhibition of human recombinant RON at 40 nM related to control ULK1
Macrophage-stimulating protein receptor (Homo sapiens), sequence (Q04912 25-304 limits assumed): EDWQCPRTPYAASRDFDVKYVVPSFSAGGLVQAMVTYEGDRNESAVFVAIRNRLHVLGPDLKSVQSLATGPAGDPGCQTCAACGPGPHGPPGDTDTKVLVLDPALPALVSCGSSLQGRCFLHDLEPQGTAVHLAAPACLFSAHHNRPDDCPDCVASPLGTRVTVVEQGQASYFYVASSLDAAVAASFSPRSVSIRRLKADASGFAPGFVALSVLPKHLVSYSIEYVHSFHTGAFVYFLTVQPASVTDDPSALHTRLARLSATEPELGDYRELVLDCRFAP
Macrophage-stimulating protein receptor (Homo sapiens), sequence (Q04912 310-1400 limits assumed): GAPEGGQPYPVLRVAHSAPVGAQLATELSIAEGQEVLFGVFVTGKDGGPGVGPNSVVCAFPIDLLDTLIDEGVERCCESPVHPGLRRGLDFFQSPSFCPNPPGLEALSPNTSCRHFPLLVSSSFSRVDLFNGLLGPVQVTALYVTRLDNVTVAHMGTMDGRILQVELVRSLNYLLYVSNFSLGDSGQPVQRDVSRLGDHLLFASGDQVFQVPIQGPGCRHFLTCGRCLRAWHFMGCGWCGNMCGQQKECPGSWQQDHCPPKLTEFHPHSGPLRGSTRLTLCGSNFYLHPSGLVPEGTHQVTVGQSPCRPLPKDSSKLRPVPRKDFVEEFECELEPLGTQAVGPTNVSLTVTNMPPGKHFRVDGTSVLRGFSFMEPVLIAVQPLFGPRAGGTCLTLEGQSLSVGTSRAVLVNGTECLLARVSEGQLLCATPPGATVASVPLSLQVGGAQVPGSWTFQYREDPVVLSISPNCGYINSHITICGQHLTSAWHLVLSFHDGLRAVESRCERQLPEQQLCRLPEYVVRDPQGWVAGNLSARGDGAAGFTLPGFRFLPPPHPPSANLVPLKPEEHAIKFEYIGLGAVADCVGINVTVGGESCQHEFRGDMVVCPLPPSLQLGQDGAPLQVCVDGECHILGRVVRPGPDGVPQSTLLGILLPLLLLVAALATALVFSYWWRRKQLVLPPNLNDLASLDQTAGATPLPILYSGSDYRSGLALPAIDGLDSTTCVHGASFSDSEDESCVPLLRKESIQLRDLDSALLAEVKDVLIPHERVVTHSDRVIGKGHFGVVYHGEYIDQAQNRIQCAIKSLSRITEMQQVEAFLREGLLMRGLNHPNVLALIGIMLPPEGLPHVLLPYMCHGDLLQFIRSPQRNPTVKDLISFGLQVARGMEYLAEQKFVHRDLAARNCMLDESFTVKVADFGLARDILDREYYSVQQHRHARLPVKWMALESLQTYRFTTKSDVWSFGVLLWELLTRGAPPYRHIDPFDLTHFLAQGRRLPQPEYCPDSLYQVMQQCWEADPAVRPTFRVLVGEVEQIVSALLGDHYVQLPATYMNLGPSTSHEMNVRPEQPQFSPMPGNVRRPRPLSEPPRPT

[6] = molecular target: Casein kinase II subunit alpha (Homo sapiens) (UniProt P68400); experiment: Inhibition of human recombinant CK2a1 at 40 nM related to control ULK1
Casein kinase II subunit alpha (Homo sapiens), sequence (P68400 whole entry, looked up): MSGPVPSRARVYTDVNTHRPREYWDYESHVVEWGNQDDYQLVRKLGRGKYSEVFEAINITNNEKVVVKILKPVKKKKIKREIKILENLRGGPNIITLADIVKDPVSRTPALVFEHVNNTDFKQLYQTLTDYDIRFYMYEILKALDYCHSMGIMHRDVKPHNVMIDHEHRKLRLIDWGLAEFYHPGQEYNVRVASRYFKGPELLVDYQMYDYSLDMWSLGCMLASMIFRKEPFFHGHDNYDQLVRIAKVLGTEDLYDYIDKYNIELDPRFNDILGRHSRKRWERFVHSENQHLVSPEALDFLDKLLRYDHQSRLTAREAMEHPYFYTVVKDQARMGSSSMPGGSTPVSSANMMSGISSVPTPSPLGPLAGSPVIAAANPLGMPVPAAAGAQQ

[7] = molecular target: Protein kinase C eta type (Homo sapiens) (UniProt P24723); experiment: Inhibition of human recombinant PKCH at 40 nM related to control ULK1
Protein kinase C eta type (Homo sapiens), sequence (P24723 whole entry): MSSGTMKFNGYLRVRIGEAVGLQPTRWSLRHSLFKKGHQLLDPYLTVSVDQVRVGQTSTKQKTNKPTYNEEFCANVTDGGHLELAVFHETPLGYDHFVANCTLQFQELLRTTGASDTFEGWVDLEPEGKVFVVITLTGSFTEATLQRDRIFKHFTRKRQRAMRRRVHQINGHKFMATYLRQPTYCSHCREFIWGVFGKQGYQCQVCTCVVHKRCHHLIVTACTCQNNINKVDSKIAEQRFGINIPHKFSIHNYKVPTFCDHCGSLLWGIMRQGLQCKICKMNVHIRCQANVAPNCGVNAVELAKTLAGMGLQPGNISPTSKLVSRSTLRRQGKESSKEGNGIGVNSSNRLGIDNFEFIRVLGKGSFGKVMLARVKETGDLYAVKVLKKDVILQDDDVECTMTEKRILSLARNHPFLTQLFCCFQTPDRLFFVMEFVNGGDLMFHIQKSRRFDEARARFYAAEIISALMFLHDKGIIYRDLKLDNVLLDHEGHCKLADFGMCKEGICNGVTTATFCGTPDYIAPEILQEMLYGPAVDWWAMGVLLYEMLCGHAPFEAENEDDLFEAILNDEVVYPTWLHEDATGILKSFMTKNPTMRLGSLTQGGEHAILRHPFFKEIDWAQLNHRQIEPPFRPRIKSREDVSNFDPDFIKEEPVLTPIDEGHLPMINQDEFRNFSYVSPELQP

[8] = molecular target: T3, Serine/threonine-protein kinase DCLK3 (Homo sapiens) (UniProt Q9C098); experiment: Inhibition of human recombinant DCAMKL3 at 40 nM related to control ULK1
T3 sequence (whole entry): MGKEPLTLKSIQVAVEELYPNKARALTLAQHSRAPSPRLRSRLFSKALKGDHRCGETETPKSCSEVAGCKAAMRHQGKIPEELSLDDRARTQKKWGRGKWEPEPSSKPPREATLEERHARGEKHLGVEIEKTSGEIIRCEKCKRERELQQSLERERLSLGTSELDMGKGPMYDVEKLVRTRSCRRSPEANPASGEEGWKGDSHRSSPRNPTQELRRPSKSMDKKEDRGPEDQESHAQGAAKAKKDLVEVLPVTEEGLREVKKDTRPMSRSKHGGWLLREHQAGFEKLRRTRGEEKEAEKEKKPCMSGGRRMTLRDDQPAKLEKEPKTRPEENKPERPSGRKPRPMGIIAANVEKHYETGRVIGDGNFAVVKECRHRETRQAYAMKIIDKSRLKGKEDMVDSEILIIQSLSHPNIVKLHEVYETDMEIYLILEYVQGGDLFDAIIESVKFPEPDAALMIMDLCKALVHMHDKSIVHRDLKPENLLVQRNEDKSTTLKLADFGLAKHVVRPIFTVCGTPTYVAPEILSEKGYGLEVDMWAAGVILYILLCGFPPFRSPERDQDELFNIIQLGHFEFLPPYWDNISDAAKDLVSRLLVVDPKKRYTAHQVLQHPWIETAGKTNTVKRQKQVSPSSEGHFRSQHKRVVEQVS

SMILES: CNC(=O)c1ccccc1Oc1nc(Nc2cc(OC)c(OC)c(OC)c2)ncc1Br
- inhibition [1]: 0%
- fold change (FC) [2]: 0.2

SMILES: CC(C)[C@H](NC(=O)c1cc(-c2cnn3cc(-c4ccc(OCCN5CCCCC5)cc4)cnc23)cs1)C(F)(F)F
- fold change (FC) [3]: 0.27

SMILES: O=C(N[C@@H](C1CC1)C(F)(F)F)c1cc(-c2cnn3cc(-c4ccc(F)cc4)cnc23)cs1
- fold change (FC) [4]: 0
- fold change (FC) [5]: 0
- fold change (FC) [6]: 0.1
- fold change (FC) [7]: 0
- fold change (FC) [8]: 0.03
